ChEMBL document CHEMBL1201862, “PubChem BioAssay data set” (2004)
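Dose response: 5 concentrations. Exposure: 48 h. Format: 96-well plates. Endpoint: linear interpolation; highest concentration if not reached. At the GI50, growth is halved.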 Active and inactive are the calls of the source. No stated cut-off is given here; in the data, active = GI50 up to about 1.1 µM and inactive = higher.

How the values were obtained:
Assay in all cases: NCI tumour cell line growth inhibition, 48 h
DMS-273 = test system: DMS-273
HOP-18 = test system: HOP-18
DLD-1 = test system: DLD-1
LXFL 529 = test system: LXFL 529
M19-MEL = test system: M19-MEL
XF498 = test system: XF498
KM-20L2 = test system: KM-20L2
RXF 631 = test system: RXF 631

Measured: GI50

CCCCCCCCCCNCCSSCc1ccc(Cl)cc1
inactive: DMS-273 1.4 µM | HOP-18 > 10 µM | DLD-1 2.07 µM | LXFL 529 1.56 µM | M19-MEL 1.22 µM | XF498 2.8 µM | KM-20L2 1.36 µM | RXF 631 1.69 µM

Cc1nc(C(N)=S)sc1C(=O)/C=C/c1c(O)ccc2ccccc12
inactive: DMS-273 > 100 µM | HOP-18 > 100 µM | DLD-1 72.4 µM | LXFL 529 30 µM | M19-MEL 13.8 µM | XF498 > 100 µM | KM-20L2 > 100 µM | RXF 631 > 100 µM

O=C1[C@H]2ON(c3ccccc3)C(c3ccccc3F)[C@H]2C(=O)N1c1ccc(Cc2ccc(N3C(=O)[C@@H]4ON(c5ccccc5)C(c5ccccc5F)[C@@H]4C3=O)cc2)cc1 (stereo partly drawn)
inactive: DMS-273 46.1 µM | HOP-18 > 100 µM | DLD-1 > 100 µM | LXFL 529 > 100 µM | M19-MEL > 100 µM | XF498 > 100 µM | KM-20L2 > 100 µM | RXF 631 > 100 µM

NC1=NN(c2ccccc2)C(=O)C1C(=O)C(=O)Nc1cccc(C(F)(F)F)c1 (stereo not drawn)
inactive: DMS-273 > 100 µM | HOP-18 67.9 µM | DLD-1 > 100 µM | LXFL 529 67.1 µM | M19-MEL > 100 µM | XF498 > 100 µM | KM-20L2 > 100 µM | RXF 631 > 100 µM

CC[As](CC)SCC1OC(OC(C)=O)C(OC(C)=O)C(OC(C)=O)C1OC(C)=O (stereo not drawn)
inactive: DMS-273 15.6 µM | HOP-18 16.1 µM | DLD-1 16.1 µM | LXFL 529 1.92 µM | M19-MEL 11.8 µM | XF498 17.7 µM | KM-20L2 18.7 µM | RXF 631 2.67 µM

C/C(CC(=O)CCC(=O)Nc1cccc(C(F)(F)F)c1)=N\NC(=O)NN
inactive: DMS-273 > 100 µM | HOP-18 > 100 µM | DLD-1 > 100 µM | LXFL 529 > 100 µM | M19-MEL > 100 µM | XF498 > 100 µM | KM-20L2 > 100 µM | RXF 631 > 100 µM
